Where no end group is shown, it is not given here.
What was measured:
[1] = test system: recombinant HLA-A2.1 and β2-microglobulin; test: HLA-A2.1 peptide binding assay (inhibition of binding of fluorescent standard peptide […], cell free); design: species or system human; details: for IC50: cell free, determined on the results of 4 experiments, read-out: IC50 (concentration that inhibited the binding of a fluorescent standard peptide to HLA-A2.1 by 50%); for binder category for HLA-A2.1: classified from the IC50
Description: a. Binding of HA-1^H and HA-1^R peptides to HLA-A2.1. The binding of HA-1^H and HA-1^R peptides were assayed for their ability to inhibit the binding of fluorescent peptide […] to recombinant HLA-A2.1 and β2-microglobulin in a cell free peptide binding assay. One representative experiment is shown.
A quantitative assay for HLA-A2.1 binding peptides based on the inhibition of binding of the flourescent labeled standard peptide Hbc 18-27 F to C6 ([…]) to recombinant HLA-A2.1 protein and β2-microglobulin was used ^26,27. In short, HLA-A2.1 concentrations yielding approximately 40-60% bound fluorescent standard peptide were used with 15 pmol/well (150 nM) β2-microglobulin (Sigma). Various doses of the test peptides were coincubated with 100 fmol/well (1 nM) fluorescent standard peptide. HLA-A2.1 and β2-microglobulin for 1 days at room temperature in the dark in a volume of 100 μl in assay buffer. The percent of MHC-bound fluoescence was determined by gel filtration and the 50% inhibitory dose was deduced for each peptide using one-site competition non-linear regression analysis with the prismgraph software. Synthetic peptides were manufactured on a Abimed 422 multiple peptide synthesizer (Abimed, Langenfeld, Germany) and were more than 90% pure as checked by reverse phase HPLC.

[2] = test system: HA-1 specific T cell clones 3HA15, clone 15 and 5W38 (T2 target cells); test: 51Cr-release reconstitution assay: synthetic peptide on T2 cells with HA-1 specific CTL clones; assay type: cell-based, human; details: for recognition by HA-1 specific CTL clones / reconstitution of the HA-1 epitope: synthetic peptide titrated on T2 cells, 51Cr-release
Description: b. Reconstitution assay with different concentrations of synthetic mH HA-1 peptide with three HA-1 specific T cell clones, 3HA15, clone 15 and 5W38. Background lysis of T2 by the CTL in the absence of any peptide was for 3HA15 4%, for clone 15 10% and for 5W38 2%. Positive control lysis was for 3HA15 46%, for clone 15 47% and 5W38 48 48%.
b. Reconstitution assay with different concentrations of synthetic […] peptide with HA-1 specific T cells. The HA-1^R peptide was titrated and preincubated with T2 cells. Three HA-1 specific T cells clones, 5W38, 3HA15 and clone 15 were added and a 4 hr ^51Cr-release assay was performed. Background lysis of T2 by the CTL in the absence of any peptide was for 3HA15 4%, for clone 15 10% and for 5W38 2%. Positive control lysis was for 3HA15 46%, for clone 15 47% and 5W38 48%.
HPLC fractions and synthetic peptides were tested in a ^51Cr-release assay as described^24. 2500 ^51Cr labeled T2 cells in 25 μl were incubated with 25 μl peptide dissolved in Hanks 50 mM Hepes for 30 minutes at 37° C. Cytotoxic T cells were added in an endvolume of 150 μl. When HPLC peptide fractions were tested, T2 was incubated with 2 μg/ml MA2.1 during the ^51Cr labelling. After 4 hours at 37° C. the supernatants were harvested.

Sequence	binding affinity for HLA-A2.1, fold lower than the HA-1^H peptide ([1]; HA-1^R versus HA-1^H peptide) [fold]	IC50 [1] [nM]	binder category for HLA-A2.1 [1]	peptide concentration needed for recognition, times higher than for the HA-1^H peptide ([2]; clone 3HA15) [times]	recognition by HA-1 specific CTL clones / reconstitution of the HA-1 epitope [2]	EC50 ([2]; 3 different HA-1 specific CTL clones, T2 target cells, 4 hr, read-out: half maximal activity in CML (51Cr-release) assay) [nM]
VLRDDLLEA	10	365	intermediate binders	1000	One out of three clones (3HA15) tested showed recognition	–
YXTDRVMTV [synthetic peptide of candidate m/z 550; X stands for isoleucine or leucine]	–	–	–	–	not able to reconstitute the HA-1 epitope	–
VLHDDLLEA	–	30	high affinity binders	–	recognition by all three clones	0.15 to 0.2

Reference: US6830883B1, “Method for typing of minor histocompatibility antigen HA-1” (Rijksuniversiteit Leiden, priority 1997, dated 2004)
